Experimental findings from patent US6733779B2, “Method of treating benign prostatic hyperplasia and other benign prostate conditions” (priority 1999, dated 2004) are described below.

Data set [1] deals with prostate specific antigen (PSA). Briefly: Blood PSA level of patients treated orally with Accutane. The format is in vivo, human.
Data set [2] deals with benign prostatic hyperplasia. Nature of the data set: Clinical treatment of patients with benign prostatic hyperplasia / benign prostate conditions: symptoms and prostate size. It is filed as in vivo, human.
Data set [3] can be described thus: Side effects observed in the treated patients (informal trials).
Protocol: The treatment method involves essentially two periods: an initial treatment, and a sustaining treatment. First, in the initial treatment the patients orally administrate an initial dosage about 40 mg of 13-cis-retinoic acid daily for a period from about ten days to about twenty days. Thereafter, the patients orally administrate a sustaining dosage about 40 mg of 13-cis-retinoic acid about every five to seven days in a sustaining period. Typically, the sustaining period is about one year. However, it can be extended longer if extended maintenance is needed.
In the initial treatment, 40 mg of 13-cis-retinoic acid can be administrated in a single dose, or divided doses. […] The patients can either take one 40 mg capsule, or take two 20 mg capsules daily. The same applies to the dosage in the sustaining treatment. For convenience, the patients can take one 40 mg dose every five to seven days.
The initial dosage of about 40 mg 13-cis-retinoic acid daily is determined based on average men's body weight of about 160 lbs, i.e. at about 0.25 mg/lb of body weight. For patients who weigh substantially above or less than the average body weight, the dosage described above can be adjusted accordingly. The same principle applies to the sustaining dosage.
Setting [4] is: patients of the informal trials.

Take `CC1=C(/C=C/C(C)=C/C=C/C(C)=C\C(=O)O)C(C)(C)CCC1` [Accutane, 13-cis retinoic acid]: the PSA after treatment entry is given as “less than one” in data set [1] (Example 1 patient, PSA 4 before, 40 mg orally for 14 days, then 40 mg every 5 days for about one year); “less than one” in data set [1] (Example 2 patient, PSA 3 before, after 6 months, 40 mg for 14 days, then 40 mg every 5 days); “less than 1” in data set [1] (Example 3 patient, chronic posttraumatic prostatitis, PSA 5 before, 40 mg daily for 14 days, then 40 mg every 5 days); “less than 1” in data set [1] (Example 4 patient, PSA 4 before, within 6 months, 40 mg per day for 14 days, then 40 mg every 5 days). Also, the symptoms result is recorded as “improved steadily” in data set [2] (Example 1 patient, prostatic enlargement and attenuated urine stream, 40 mg for 14 days, then 40 mg every 5 days); “steady improvement in symptoms” in data set [2] (Example 2 patient, prostatic enlargement, decreasing urine flow, urgency, nocturia); “rapidly became symptom free” in data set [2] (Example 3 patient, chronic prostatitis, after the initial treatment, remained so during the sustaining period); “readily improved” in data set [2] (Example 4 patient, enlarged prostate, urinary tenesmus). Besides, in data set [2] (Example 1 patient, 40 mg for 14 days, then 40 mg every 5 days), the “palpable size of prostate” value is recorded as “decreased in palpable size”. In data set [2] (approximately twelve patients, by examination and the patients' own anecdotal comments), the prostate enlargement result is reported as “a reduction in prostate enlargement was confirmed”. Also, the “worsening of condition (PSA or hyperplasia), progression to malignancy” value in data set [2] (setting [4]) was “none of the conditions of these patients worsened”. In addition, in data set [3] (Example 1 patient, on sustaining dosage of 40 mg every 5 days), the blood chemistries entry is recorded as “remained normal”. Moreover, the adverse side effects entry in data set [3] (Example 1 patient, soreness subsided slowly after the sustaining dose was instituted) is “drying of lips and some musculo-skeletal soreness at sites of old injuries to the fingers and neck”; in data set [3] (Example 2 patient), “No adverse side effects were observed”. The “serious adverse side effects or contra-indications” value in data set [3] (setting [4]) is recorded as “no serious adverse side effects or contra-indications of any kind were observed”.
